# Laboratory results taken from patent US10124017B2, “Use of Ginsenoside M1 for preventing or treating gout” (priority 2015, dated 2018).
# Legend:
# [1] = tested on: mouse J774A.1 macrophages; assay: MSU-induced IL-1β production in LPS-primed J774A.1 macrophages (ELISA); format: cell-based; settings: 1 μg/ml LPS 30 min, then 100 μg/ml MSU 24 h; FIG. 1; p<0.001 compared to MSU alone
# Experimental: (§1) The mouse macrophages cell line J774A.1 and human monocytic leukemia cell line THP-1 was obtained from the American Type Culture Collection (Rockville, Md.) and cultured in RPMI 1640 medium supplemented with 10% heat-inactivated fetal bovine serum (FBS) and 2 mM L-glutamine (all from Life Technologies, Carlsbad, Calif.) at 37° C. in a 5% CO2 incubator. To induce monocyte-to-macrophage differentiation, THP-1 cells were cultured for 48 h in RPMI-1640 medium supplemented with 100 nM phorbol 12-myristate 13-acetate (Sigma-Aldrich).
# (§2) In FIGS. 1 and 2, J774A.1 macrophages (1×10^5 cells/500 μl medium/well) were incubated for 30 min with or without Ginsenoside M1, then for 30 min with or without 1 μg/ml LPS (from Escherichia coli 0111:B4, purchased from Sigma, St. Louis, Mo.) in the continued presence or absence of Ginsenoside M1, and then for 24 h with or without 100 μg/ml MSU or 100 μg/ml CPPD (all purchased from InvivoGen, San Diego, Calif.). The levels of IL-1β in the culture medium were measured by ELISA.
# (§3) For ELISA assay, 50 μl of biotinylated antibody reagent and 50 μl of culture medium were added to an anti-mouse IL-1β or IL-6 precoated stripwell plate, and incubated at room temperature for 2 h. […] Following the addition of 100 μl of provided stop solution to each well to stop the reaction, the absorbance of the plate was measured by a microplate reader at a 450 nm wavelength. […]
# [2] = tested on: mouse J774A.1 macrophages; assay: CPPD-induced IL-1β production in LPS-primed J774A.1 macrophages (ELISA); format: cell-based; settings: 1 μg/ml LPS 30 min, then 100 μg/ml CPPD 24 h; FIG. 2; p<0.001 compared to CPPD alone
# Experimental: as §1, §2, §3
# [3] = tested on: LPS-activated J774A.1 macrophages; assay: LPS-induced NLRP3 and proIL-1β expression in J774A.1 macrophages (Western blot); format: cell-based, mouse; settings: 1 μg/ml LPS 6 h, FIG. 3
# Experimental: as §1
# In FIG. 3, J774A.1 macrophages (2×10^6 cells/2 ml medium/dish) were incubated for 30 min with or without Ginsenoside M1, then for 6 h with or without 1 μg/ml LPS (from Escherichia coli 0111:B4, purchased from Sigma, St. Louis, Mo.) in the continued presence or absence of Ginsenoside M1. The levels of NLRP3 and proIL-1β in the cell lysates were measured by Western blot. […]
# J774A.1 macrophages were incubated for 30 min with or without Ginsenoside M1, then for 6 h with or without 1 μg/ml LPS in the continued presence or absence of Ginsenoside M1. The levels of NLRP3 and proIL-1β in the cell lysates were measured by Western blot.
# human THP-1 macrophages = assay: MSU-induced IL-1β, TNF-α and IL-6 production in LPS-primed THP-1 macrophages (ELISA); format: cell-based; settings: 1 μg/ml LPS 6 h, then 100 μg/ml MSU 24 h
# Experimental: as §1
# (§4) In FIG. 4-6, THP-1 macrophages (1×10^5 cells/500 μl medium/well) were incubated for 6 h with or without 1 μg/ml LPS, then for 30 min with or without Ginsenoside M1, in the continued presence or absence of LPS, and then for 24 h with or without 100 μg/ml MSU. The levels of IL-1β in the culture medium were measured by ELISA.
# (§5) For ELISA assay, 50 μl of biotinylated antibody reagent and 50 μl of culture medium were added to an anti-mouse IL-1β or IL-6 precoated stripwell plate, and incubated at room temperature for 2 h. After washing the plate three times with washing buffer, 100 μl of diluted streptavidin-HRP (horseradish peroxidase) concentrate was added to each well and incubated at room temperature for 30 min. The washing process was repeated; then 100 μl of a premixed tetramethylbenzidine substrate solution was added to each well and developed at room temperature in the dark for 30 min. Following the addition of 100 μl of provided stop solution to each well to stop the reaction, the absorbance of the plate was measured by a microplate reader at a 450 nm wavelength.
# as §4, with “To confirm the anti-inflammatory activities of Ginsenoside M1, human” for “In FIG. 4-6,”, “macrophages” for “macrophages (1×10^5 cells/500 μl medium/well)”
# C57BL/6 mice = assay: MSU-induced peritonitis in vivo (acute gout inflammation); parameters: species or system mouse; settings: 60 mg/kg oral by gavage day 0, 1, 2, 3 mg MSU i.p., p<0.001 compared to MSU-injection group
# Experimental: In FIG. 7-9, the animal experiments were conducted in accordance with the guidelines of the National Institutes of Health and approved by the Institutional Animal Care and Use Committee of National Ilan University. Male C57BL/6 mice were purchased from the National Laboratory Animal Center (Taipei, Taiwan). The animals were provided a chow diet and water ad libitum under conditions of 22-24° C., 40-70% relative humidity, and a 12 h light-dark cycle. Ginsenoside M1 (60 mg/kg body weight) was oral administered daily by gavage at day 0, 1 and 2. Acute gout inflammation was induced by intraperitoneal injection each mice with 3 mg of MSU in 0.5 mL of phosphate-buffered saline (PBS) at day 0 and day 2 1 h after Ginsenoside M1 administration. Control mice received 0.5 mL PBS without MSU (n=6). After 4 h, all mice were sacrificed using neck breaking, and the mice were intraperitoneally injected with 5 mL of PBS. The peritoneal fluid was then collected, and the volume of peritoneal fluid was about 4 mL from each mouse. The collected peritoneal exudate cells were washed and resuspended in PBS. The cells were stained with fluorescent antibodies against the neutrophils specific surface markers Ly-6G and CD45 (eBioscience, San Diego, Calif., USA) for 20 min at 37° C. in the dark, and the cell populations were sorted using a FACScan flow cytometer (Becton-Dickinson, San Jose, Calif.). The levels of IL-1β and IL-6 in the peritoneal fluid were measured by ELISA.
# as §5, with “The washing process was repeated; then 100 μl of a premixed tetramethylbenzidine substrate solution was added to each well and developed at room temperature in the dark for 30 min.” left out
compound,measurement,setting,value
"CC(C)=CCC[C@](C)(O[C@@H]1OC(CO)[C@@H](O)[C@@H](O)C1O)[C@H]1CC[C@]2(C)C1[C@H](O)CC1[C@@]3(C)CC[C@H](O)C(C)(C)C3CC[C@]12C (stereo partly drawn) [Ginsenoside M1, 20-O-β-D-glucopyranosyl-20(S)-protopanaxadiol]",IL-1β secretion in the culture medium,[1],reduced
same,IL-1β secretion in the culture medium,[2],reduced
same,level of NLRP3 in the cell lysates,[3],reduced
same,level of proIL-1β in the cell lysates,[3],reduced
same,IL-1β production in the culture medium,"human THP-1 macrophages; FIG. 4, p<0.05 and p<0.001 compared to MSU alone",reduced
same,TNF-α production in the culture medium,"human THP-1 macrophages; FIG. 5, p<0.05 and p<0.001 compared to MSU alone",reduced
same,IL-6 production in the culture medium,"human THP-1 macrophages; FIG. 6, p<0.001 compared to MSU alone",reduced
same,MSU-induced IL-1β production in the murine peritoneal fluid,C57BL/6 mice; FIG. 7,significantly reduced
same,MSU-induced IL-6 production in the murine peritoneal fluid,C57BL/6 mice; FIG. 8,significantly reduced
same,levels of MSU-induced Ly-6G+ neutrophils in the peritoneal fluid,"C57BL/6 mice; flow cytometry, FIG. 9",significantly reduces
